Source: ChEMBL document CHEMBL2074303, “Transport of the glutathione conjugate of ethacrynic acid by the human multidrug resistance protein MRP” (FEBS Lett, 1996)

Key:
[1] = target: Multidrug resistance-associated protein 1 (Homo sapiens, UniProt P33527); assay: TP_TRANSPORTER: inhibition of DNP-SG uptake (DNP-SG: 10 uM, Glutathione S-conjugate of ethacrynic acid: 10uM) in membrane vesicles from S1(MRP) cells; format: functional, cell membranes, Membrane vesicle; parameters: scale not given: the % may be the effect or the level left
Chain of Multidrug resistance-associated protein 1 (P33527 whole entry): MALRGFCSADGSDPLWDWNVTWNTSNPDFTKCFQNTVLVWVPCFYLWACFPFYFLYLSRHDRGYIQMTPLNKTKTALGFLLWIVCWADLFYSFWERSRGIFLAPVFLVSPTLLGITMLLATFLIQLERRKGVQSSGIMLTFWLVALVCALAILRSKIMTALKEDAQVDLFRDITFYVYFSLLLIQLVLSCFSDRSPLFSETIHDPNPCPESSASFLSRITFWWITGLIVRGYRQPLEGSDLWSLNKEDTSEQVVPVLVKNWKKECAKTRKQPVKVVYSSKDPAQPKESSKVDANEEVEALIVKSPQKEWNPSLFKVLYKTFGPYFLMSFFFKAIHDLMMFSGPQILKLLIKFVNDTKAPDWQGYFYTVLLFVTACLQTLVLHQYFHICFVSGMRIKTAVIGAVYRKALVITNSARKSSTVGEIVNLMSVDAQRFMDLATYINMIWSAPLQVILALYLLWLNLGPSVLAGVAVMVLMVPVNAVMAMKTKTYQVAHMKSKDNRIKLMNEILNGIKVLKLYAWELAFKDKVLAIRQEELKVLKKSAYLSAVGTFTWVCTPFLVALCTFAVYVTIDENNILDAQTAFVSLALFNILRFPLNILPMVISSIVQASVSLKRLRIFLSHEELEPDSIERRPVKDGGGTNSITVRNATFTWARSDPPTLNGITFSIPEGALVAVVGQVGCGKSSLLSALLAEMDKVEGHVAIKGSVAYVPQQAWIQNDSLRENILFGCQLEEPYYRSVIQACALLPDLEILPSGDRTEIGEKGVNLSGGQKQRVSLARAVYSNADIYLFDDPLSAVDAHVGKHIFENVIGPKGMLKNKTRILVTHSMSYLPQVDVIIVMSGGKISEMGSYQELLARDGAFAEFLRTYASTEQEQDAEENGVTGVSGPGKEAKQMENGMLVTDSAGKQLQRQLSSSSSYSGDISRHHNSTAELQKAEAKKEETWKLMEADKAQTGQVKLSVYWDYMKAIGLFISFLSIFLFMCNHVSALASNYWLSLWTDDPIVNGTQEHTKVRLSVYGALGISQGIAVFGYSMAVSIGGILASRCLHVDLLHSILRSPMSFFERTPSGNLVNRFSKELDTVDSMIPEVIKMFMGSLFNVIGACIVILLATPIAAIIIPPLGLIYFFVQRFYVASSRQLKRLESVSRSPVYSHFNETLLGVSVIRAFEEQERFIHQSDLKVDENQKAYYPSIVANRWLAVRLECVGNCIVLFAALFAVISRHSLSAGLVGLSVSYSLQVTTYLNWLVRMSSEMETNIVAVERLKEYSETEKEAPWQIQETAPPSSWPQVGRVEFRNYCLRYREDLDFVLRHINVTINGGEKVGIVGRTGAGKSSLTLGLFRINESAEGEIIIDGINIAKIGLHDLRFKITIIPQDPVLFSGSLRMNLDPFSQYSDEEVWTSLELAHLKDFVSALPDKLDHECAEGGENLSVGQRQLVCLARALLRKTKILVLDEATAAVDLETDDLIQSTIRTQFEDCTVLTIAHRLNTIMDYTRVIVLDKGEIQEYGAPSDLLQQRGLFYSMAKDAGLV

[2] = target: Multidrug resistance-associated protein 1 (MRP1) (Homo sapiens, UniProt P33527); assay: TP_TRANSPORTER: inhibition of DNP-SG uptake (DNP-SG: 10 uM, 4-Glutathionyl cyclophosphamide: 1000uM) in membrane vesicles from S1(MRP) cells; format: functional, cell membranes, Membrane vesicle; parameters: scale not given: the % may be the effect or the level left; settings: probe DNP-SG, read-out: Activity
Chain of Multidrug resistance-associated protein 1 (MRP1) (P33527 whole entry): as above

Activity [1] [%]	Structure (SMILES)	activity at 1000 µM [2] [%]
4	CCC(CSC[C@@H](NC(=O)CC[C@H](N)C(=O)O)C(=O)NCC(=O)O)C(=O)c1ccc(OCC(=O)O)c(Cl)c1Cl (some centres not stated)	–
–	NC(CCC(=O)NC(CSC1CCOP(=O)(N(CCCl)CCCl)N1)C(=O)NCC(=O)O)C(=O)O (configuration not stated)	44
